Earlier results, collected in PubChem BioAssay AID1259410 (Chemical Carcinogenesis Research Information System (CCRIS), 2018).

Tested on: rodent tumor promotion studies, tumor incidence
Experiment: CCRIS tumor promotion studies

O=C(O)CN(CC(=O)O)CC(=O)O
outcome (Carcinogen: N-BIS(2-HYDROXYPROPYL)NITROSAMINE, 53609-64-6, Doses [Carcinogen]: 0.2% IN DRINKING WATER FOR 2 WK, Doses [Promoter]: 0, 1% IN DIET FOR 30 WK BEGINNING POST CARCINOGEN DOSE (STUDY DURATION: 32 WK), Route [Carcinogen]: ORAL, Route [Promoter]: ORAL, Species: RAT, Strain/Sex: WISTAR/MALE): bladder: papilloma
outcome (Carcinogen: N-BUTYL-N-(4-HYDROXYBUTYL)NITROSAMINE, 3817-11-6, Doses [Carcinogen]: 500 PPM IN DRINKING WATER FOR 4 WK, Doses [Promoter]: 0, 10000 PPM IN DIET BEGINNING POST CARCINOGEN TREATMENT AND CONTINUING FOR 28 WK (STUDY DURATION: 32 WK), Route [Carcinogen]: ORAL, Route [Promoter]: ORAL, Species: RAT, Strain/Sex: WISTAR/MALE): urinary bladder: papilloma, transitional cell carcinoma
outcome (Carcinogen: N-BUTYL-N-(4-HYDROXYBUTYL)NITROSAMINE, 3817-11-6, Doses [Carcinogen]: 500 PPM IN DRINKING WATER FOR 4 WK, Doses [Promoter]: 0, 10000 PPM IN DIET FOR 28 WK STARTING POST CARCINOGEN (STUDY DURATION: 32 WK), Route [Carcinogen]: ORAL, Route [Promoter]: ORAL, Species: RAT, Strain/Sex: WISTAR/MALE): bladder: papilloma, transitional cell carcinoma, squamous cell carcinoma
outcome (Carcinogen: N-ETHYL-N-(2-HYDROXYETHYL)NITROSAMINE, Doses [Carcinogen]: 1000 PPM IN DIET FOR 2 WK, Doses [Promoter]: 500, 10000 PPM IN DIET FOR 30 WK, Route [Carcinogen]: ORAL, Route [Promoter]: ORAL, Species: RAT, Strain/Sex: WISTAR/MALE): kidney: tubular cell tumor
outcome (Carcinogen: N-ETHYL-N-HYDROXYETHYLNITROSAMINE, 13147-25-6, Doses [Carcinogen]: 0.1% IN DIET FOR 2 WK, Doses [Promoter]: 0, 1% IN DIET BEGINNING POST CARCINOGEN TREATMENT AND CONTINUING FOR 30 WK (STUDY DURATION: 32 WK), Route [Carcinogen]: ORAL, Route [Promoter]: ORAL, Species: RAT, Strain/Sex: F344/MALE): kidney: adenoma or carcinoma
outcome (Carcinogen: N-ETHYL-N-HYDROXYETHYLNITROSAMINE, 13147-25-6, Doses [Carcinogen]: 1000 PPM IN DIET FOR 2 WK, Doses [Promoter]: 0, 500, 10000 PPM IN DIET FOR 30 WK STARTING POST CARCINOGEN (STUDY DURATION: 32 WK), Doses [Promoter]: 0, 500, 10000 PPM IN DIET FOR 30 WK STARTING POST CARCINOGEN (STUDY DURATION: 32 WK), Route [Carcinogen]: ORAL, Route [Promoter]: ORAL, Species: RAT, Strain/Sex: WISTAR/MALE): kidney: tubular cell tumor
outcome (Carcinogen: Potassium bromate (7758-01-2), Doses [Carcinogen]: 60, 125, 250 and 500 ppm in drinking water for 13 wk (study duration 52 wk), Doses [Promoter]: 1% in diet for 37 wks starting 2 wk after end of carcinogen administration (study duration 52 wk), Route [Carcinogen]: Oral, Route [Promoter]: Oral, Species: Rat, Strain/Sex: F344 (15/Group)): kidney: significant increase in multiplicity of atypical tubules and of incidenc

C[C@H](CCC(=O)O)[C@H]1CC[C@H]2[C@@H]3CC[C@@H]4C[C@H](O)CC[C@]4(C)[C@H]3CC[C@]12C
outcome (Carcinogen: 3-METHYLCHOLANTHRENE, 56-49-5, Doses [Carcinogen]: 3 MG IN BEESWAX PELLET, Doses [Promoter]: 0, 3 MG IN BEESWAX PELLET (STUDY DURATION: 5 MO), Route [Carcinogen]: IMPLANT, Route [Promoter]: IMPLANT, Species: HAMSTER): gallbladder: tumor
outcome (Doses [Carcinogen]: IR, Route [Carcinogen]: RECTAL, Route [Promoter]: RECTAL, Species: RAT, Strain/Sex: MALE,FEMALE): colon

S=C=NCCCCCCc1ccccc1
outcome (Carcinogen: AZOXYMETHANE, 25843-45-2, Doses [Carcinogen]: 15 MG/KG BW 1/WK FOR 2 WK, Doses [Promoter]: 0, 640 PPM IN DIET BEGINNING 2 WK PRIOR TO CARCINOGEN DOSE (STUDY DURATION: 56 WK), Route [Carcinogen]: SUBCUTANEOUS, Route [Promoter]: ORAL, Species: RAT, Strain/Sex: F344/MALE): intestine: adenocarcinoma
outcome (Carcinogen: N-METHYL-N-BENZYLNITROSAMINE, 937-40-6, Doses [Carcinogen]: 0.5 MG/KG BW 1/WK FOR 15 WK, Doses [Promoter]: 0, 1, 2.5 UMOL/G DIET FOR DURATION OF STUDY BEGINNING 2 WK PRIOR TO CARCINOGEN TREATMENT (STUDY DURATION: 21 WK), Doses [Promoter]: 0, 1, 2.5 UMOL/G DIET FOR DURATION OF STUDY BEGINNING 2 WK PRIOR TO CARCINOGEN TREATMENT (STUDY DURATION: 21 WK), Route [Carcinogen]: SUBCUTANEOUS, Route [Promoter]: ORAL, Species: RAT, Strain/Sex: F344/MALE): esophagus: tumor

CC1=C(/C=C/C(C)=C/C=C/C(C)=C/C=C/C=C(C)/C=C/C=C(C)/C=C/C2=C(C)CCCC2(C)C)C(C)(C)CCC1
outcome (Carcinogen: 4-(N-METHYL-N-NITROSAMINO)-1-(3-PYRIDYL)-1-BUTANONE (NNK) [64091-91-4], Doses [Carcinogen]: 3.5 MG ON D 7, Doses [Promoter]: 0, 120, 600, 3000 PPM FROM START TO END AT 26 WKS (STUDY DURATION: 26 WKS), Doses [Promoter]: 0, 120, 600, 3000 PPM FROM START TO END AT 26 WKS (STUDY DURATION: 26 WKS), Route [Carcinogen]: IP INJECTION, Route [Promoter]: DIET, Species: MOUSE, Strain/Sex: A/J/MALE): lung - negative
outcome (Carcinogen: 4-(N-METHYL-N-NITROSAMINO)-1-(3-PYRIDYL)-1-BUTANONE (NNK) [64091-91-4], Doses [Carcinogen]: 3.5 MG ON D 15 (STUDY DURATION: 28 WKS), Doses [Promoter]: 600 PPM WKS 1 TO 3, WKS 6 TO 28 OR WKS 1 TO 28 (STUDY DURATION: 28 WKS), Route [Carcinogen]: IP INJECTION, Route [Promoter]: DIET, Species: MOUSE, Strain/Sex: A/J/MALE): lung - negative
outcome (Carcinogen: 4-(N-METHYL-N-NITROSAMINO)-1-(3-PYRIDYL)-1-BUTANONE (NNK) [64091-91-4], Doses [Carcinogen]: 5 MG ON D 28, Doses [Promoter]: 600 PPM FROM START TO WK 5, WK 3 TO 8, WKS 8 TO 24 OR FOR 24 WKS (STUDY DURATION: 24 WKS), Route [Carcinogen]: IP INJECTION, Route [Promoter]: DIET, Species: MOUSE, Strain/Sex: A/J/MALE): lung - negative

C[C@]12CC[C@@H]3c4ccc(O)cc4CC[C@H]3[C@@H]1CC[C@@H]2OC(=O)CCc1ccccc1 (tested in a mixture with another compound)
outcome (Carcinogen: N-NITROSOMORPHOLINE, Doses [Carcinogen]: IG, Route [Carcinogen]: GAVAGE, Route [Promoter]: INTRAMUSCULAR, Species: RAT, Strain/Sex: FEMALE): liver

CSCC[C@H](NC(=O)[C@H](Cc1ccccc1)NC(=O)CNC(=O)CNC(=O)[C@@H](N)Cc1ccc(O)cc1)C(=O)O
outcome (Carcinogen: AZOXYMETHANE, 25843-45-2, Doses [Carcinogen]: 7.4 MG/KG IN 0.9% SALINE 1/WK FOR 10 WK, Doses [Promoter]: 0, 50 UG/KG IN OLIVE OIL 1/2 D BEGINNING AT THE START OF CARCINOGEN TREATMENT AND CONTINUING FOR DURATION OF STUDY (STUD, Route [Carcinogen]: SUBCUTANEOUS, Route [Promoter]: SUBCUTANEOUS, Species: RAT, Strain/Sex: WISTAR/MALE): colon: tumor
outcome (Carcinogen: N-METHYL-N'-NITRO-N-NITROSOGUANIDINE, 70-25-7, Doses [Carcinogen]: 25 UG/ML IN DRINKING WATER FOR 25 WK, Doses [Promoter]: 0, 20 UG/KG 1/2 D BEGINNING POST CARCINOGEN TREATMENT AND CONTINUING FOR THE DURATION OF STUDY (STUDY DURATION: 52 WK), Route [Carcinogen]: ORAL, Route [Promoter]: SUBCUTANEOUS, Species: RAT, Strain/Sex: WISTAR/MALE): stomach: adenocarcinoma

CCCCCCCCCC(=O)O[C@@]12C[C@@H](C)[C@@]3(O)[C@@H](C=C(CO)C[C@]4(O)C(=O)C(C)=C[C@@H]34)[C@@H]1C2(C)C
outcome (Carcinogen: 7,12-DIMETHYLBENZ[A]ANTHRACENE, 57-97-6, Doses [Carcinogen]: 100 NMOL ONCE, Doses [Promoter]: 0, 40 NMOL 2/WK FOR 48 WK (STUDY DURATION: 48 WK), Route [Carcinogen]: DERMAL, Route [Promoter]: DERMAL, Species: MOUSE, Strain/Sex: NMRI): skin: tumor

CCN(CC)CCCC(C)Nc1c2ccc(Cl)cc2nc2ccc(OC)cc12 (stereo unspecified)
outcome (Carcinogen: N-NITROBIS(2-OXOPROPYL)AMINE, 60599-38-4, Doses [Carcinogen]: 10 MG/KG BW 1/WK FOR 3 WK, Doses [Promoter]: 0, 100 PPM IN DIET FOR 37 WK BEGINNING POST CARCINOGEN TREATMENT (STUDY DURATION: 40 WK), Route [Carcinogen]: SUBCUTANEOUS, Route [Promoter]: ORAL, Species: HAMSTER, Strain/Sex: SYRIAN/FEMALE): pancreas: adenocarcinoma; liver: hepatocellular adenoma or carcinoma
outcome (Carcinogen: N-NITROBIS(2-OXOPROPYL)AMINE, 60599-38-4, Doses [Carcinogen]: 10 MG/KG BW 1/WK FOR 3 WK, Doses [Promoter]: 0, 300 PPM IN DIET FOR 37 WK BEGINNING POST CARCINOGEN TREATMENT (STUDY DURATION: 40 WK), Route [Carcinogen]: SUBCUTANEOUS, Route [Promoter]: ORAL, Species: HAMSTER, Strain/Sex: SYRIAN/FEMALE): liver: hepatocellular adenoma or carcinoma

N#CS
outcome (Carcinogen: N-BIS(2-HYDROXYPROPYL)NITROSAMINE, 53609-64-6, Doses [Carcinogen]: 280 MG/100 G/BW ONCE, Doses [Promoter]: 0, 0.5% IN DRINKING WATER FOR 25 WK (STUDY DURATION: 26 WK), Route [Carcinogen]: SUBCUTANEOUS, Route [Promoter]: ORAL, Species: RAT, Strain/Sex: F344/MALE): thyroid: neoplasm
